The subject of this assay is CD2F1 mice, L1210 leukemia ip, survival T/C. The assay is described as follows: NCI In Vivo Anticancer Drug Screen. Data for tumor model L1210 Leukemia (intraperitoneal) in CD2F1 (CDF1) mice. As to conditions: higher = longer survival. The essentials: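 Tumor-bearing mice (transplanted tumor) were split into treated and vehicle control groups, and the measured endpoint of each treated group was divided by that of its vehicle controls.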

Setting [1] is: endpoint: mean survival time, dose: 50.0 mg/kg/injection, schedule: Q01DX001 (ip), vehicle: saline with Tween-80.
Setting [2] is: endpoint: mean survival time, dose: 100.0 mg/kg/injection, schedule: Q01DX001 (ip), vehicle: saline with Tween-80.
The mark [3] stands for this setting: endpoint: mean survival time, dose: 50.0 mg/kg/injection, schedule: Q01DX009 (ip), vehicle: saline with Tween-80.
Where [4] appears, read: endpoint: mean survival time, dose: 100.0 mg/kg/injection, schedule: Q01DX009 (ip), vehicle: saline with Tween-80.
Where [5] appears, read: endpoint: mean survival time, dose: 200.0 mg/kg/injection, schedule: Q01DX009 (ip), vehicle: saline with Tween-80.
Setting [6] is: endpoint: mean survival time, dose: 100.0 mg/kg/injection, schedule: Q01DX009 (ip), vehicle: Klucel (hydroxypropylcellulose) (HPC).
Where [7] appears, read: endpoint: mean survival time, dose: 200.0 mg/kg/injection, schedule: Q01DX009 (ip), vehicle: Klucel (hydroxypropylcellulose) (HPC).
The mark [8] stands for this setting: endpoint: mean survival time, dose: 100.0 mg/kg/injection, schedule: Q04DX002 (ip), vehicle: saline with Tween-80.
The mark [9] stands for this setting: endpoint: mean survival time, dose: 200.0 mg/kg/injection, schedule: Q04DX002 (ip), vehicle: saline with Tween-80.
[10] abbreviates: endpoint: mean survival time, dose: 400.0 mg/kg/injection, schedule: Q01DX009 (ip), vehicle: saline with Tween-80.
The mark [11] stands for this setting: endpoint: mean survival time, dose: 400.0 mg/kg/injection, schedule: Q04DX002 (ip), vehicle: saline with Tween-80.
[12] abbreviates: endpoint: mean survival time, dose: 100.0 mg/kg/injection, schedule: Q04DX003 (ip), vehicle: saline with Tween-80.
Setting [13] is: endpoint: mean survival time, dose: 200.0 mg/kg/injection, schedule: Q04DX003 (ip), vehicle: saline with Tween-80.

Results on 22 compounds are retold here after PubChem BioAssay AID256 (DTP/NCI, 2004).

Values joined by “and” are separate entries in the source; they are usually repeats but may differ in a detail not shown here. Equal values may be shown once. Toxic doses and inconclusive results are not listed. Residues, ends and D or L forms follow the SMILES beside them. *: point of attachment. Boc = CC(C)(C)OC(=O)*; NHNH2 = NN*

On to `CC(=O)NC1C(OC(C)=O)OC(COC(C)=O)C(OC(C)=O)C1OC(C)=O` (configuration not stated), for which the T/C is 101 % of control under setting [1]; 95 % of control under setting [2]; 98 % of control (endpoint: mean survival time, dose: 200.0 mg/kg/injection, schedule: Q01DX001 (ip), vehicle: saline with Tween-80).
Consider `OCCNc1c(Cl)ccc(Cl)c1Cl`, for which the T/C is 107 % of control under setting [3], 103 % of control under setting [4] and 98 % of control under setting [5].
Turning to `O=C(O)CCSc1ccc2c(c1)CCCC2`, the T/C was 101 % of control under setting [6] and 98 % of control under setting [7].
Regarding `O=C1C(Br)=C(Br)C(=O)C(Br)=C1Br`, the T/C is, setting by setting: under setting [3], 91 % of control; under setting [4], 94 % of control; under setting [5], 86 % of control.
As for `NC1CCCCC1N.O=C(Nc1ccc2c(O)cc(S(=O)(=O)[O-])cc2c1)c1ccccc1.O=C(Nc1ccc2c(O)cc(S(=O)(=O)[O-])cc2c1)c1ccccc1.[Pt+4]`, the T/C reads like this: (endpoint: median survival time, dose: 1.56 mg/kg/injection, schedule: Q04DX003 (ip), vehicle: saline with Tween-80) 166 % of control; (endpoint: median survival time, dose: 3.12 mg/kg/injection, schedule: Q04DX003 (ip), vehicle: saline with Tween-80) 204 % of control and 344 % of control; (endpoint: median survival time, dose: 6.25 mg/kg/injection, schedule: Q04DX003 (ip), vehicle: saline with Tween-80) 289 % of control and 344 % of control; (endpoint: median survival time, dose: 12.5 mg/kg/injection, schedule: Q04DX003 (ip), vehicle: saline with Tween-80) 289 % of control; (endpoint: median survival time, dose: 25.0 mg/kg/injection, schedule: Q04DX003 (ip), vehicle: saline with Tween-80) 91 % of control.
As for `CC(C#N)(Nc1ccccc1)c1ccccc1` (configuration not stated), the T/C is 102 % of control (endpoint: mean survival time, dose: 100.0 mg/kg/injection, schedule: Q04DX003 (ip), vehicle: saline); 103 % of control (endpoint: mean survival time, dose: 200.0 mg/kg/injection, schedule: Q04DX003 (ip), vehicle: saline); 96 % of control (endpoint: mean survival time, dose: 400.0 mg/kg/injection, schedule: Q04DX003 (ip), vehicle: saline).
Regarding `O=C1OC(=O)C2C3OC(C4CN=NC43)C12` (configuration not stated), the T/C under setting [8] is 112 % of control and the T/C under setting [9] was 118 % of control.
For `CC(Oc1ccc(Br)cc1Br)C(=O)O` (configuration not stated), the T/C under setting [4] was 97 % of control, the T/C under setting [5] is 94 % of control and the T/C under setting [10] was 94 % of control.
`COc1cc2c(cc1OC)-c1ccc3cc4c(cc3c1N(C)C2)OCO4`: the T/C was 106 % of control (endpoint: mean survival time, dose: 5.0 mg/kg/injection, schedule: Q01DX009 (ip), vehicle: water); 105 % of control (endpoint: mean survival time, dose: 10.0 mg/kg/injection, schedule: Q01DX009 (ip), vehicle: water); 105 % of control (endpoint: mean survival time, dose: 20.0 mg/kg/injection, schedule: Q01DX009 (ip), vehicle: water); 108 % of control (endpoint: mean survival time, dose: 40.0 mg/kg/injection, schedule: Q01DX009 (ip), vehicle: water); 103 % of control (endpoint: mean survival time, dose: 80.0 mg/kg/injection, schedule: Q01DX009 (ip), vehicle: water).
`CC(C)C(=O)Nc1cccc(OC(=O)NC(C)(C)C)c1`: the T/C is 100 % of control (endpoint: mean survival time, dose: 25.0 mg/kg/injection, schedule: Q01DX001 (ip), vehicle: saline with Tween-80); 91 % of control under setting [1]; 94 % of control under setting [2].
As for `CC(C)CC(NC(=O)C(Cc1c[nH]c2ccccc12)NC(=O)OC(C)(C)C)C(=O)NN` (stereo not drawn) (Boc-Trp-Leu-NHNH2; configuration not given here), the T/C runs as follows: (endpoint: mean survival time, dose: 25.0 mg/kg/injection, schedule: Q01DX009 (ip), vehicle: saline) 105 % of control; (endpoint: mean survival time, dose: 50.0 mg/kg/injection, schedule: Q01DX009 (ip), vehicle: saline) 106 % of control and 109 % of control; (endpoint: mean survival time, dose: 100.0 mg/kg/injection, schedule: Q01DX009 (ip), vehicle: saline) 117 % of control and 124 % of control; (endpoint: mean survival time, dose: 200.0 mg/kg/injection, schedule: Q01DX009 (ip), vehicle: saline) 117 % of control.
For the compound `O=C1NC(=O)C(=Cc2cc3c(cc2Br)OCO3)C(=O)N1`, the T/C by setting is: (endpoint: mean survival time, dose: 25.0 mg/kg/injection, schedule: Q01DX009 (ip), vehicle: Klucel (hydroxypropylcellulose) (HPC)) 91 % of control; (endpoint: mean survival time, dose: 50.0 mg/kg/injection, schedule: Q01DX009 (ip), vehicle: Klucel (hydroxypropylcellulose) (HPC)) 93 % of control; under setting [6], 89 % of control; under setting [8], 104 % of control; under setting [7], 100 % of control; under setting [9], 112 % of control. The T/C under setting [11] was 108 % of control.
Consider `CC1=C(/C=C/C(C)=C/C=C/C(C)=C/C(=O)Nc2ccc(O)cc2)C(C)(C)CCC1`, for which the T/C (endpoint: median survival time, dose: 12.5 mg/kg/injection, schedule: Q01DX005 (ip), vehicle: saline with Tween-80) was 98 % of control; the T/C (endpoint: median survival time, dose: 25.0 mg/kg/injection, schedule: Q01DX005 (ip), vehicle: saline with Tween-80) was 101 % of control; the T/C (endpoint: median survival time, dose: 50.0 mg/kg/injection, schedule: Q01DX005 (ip), vehicle: saline with Tween-80) is 98 % of control; the T/C (endpoint: median survival time, dose: 100.0 mg/kg/injection, schedule: Q01DX005 (ip), vehicle: saline with Tween-80) was 92 % of control; the T/C (endpoint: median survival time, dose: 200.0 mg/kg/injection, schedule: Q01DX005 (ip), vehicle: saline with Tween-80) is 96 % of control.
Regarding `C(#CCNC1CCCCC1)CNC1CCCCC1`, the T/C was 94 % of control (endpoint: mean survival time, dose: 25.0 mg/kg/injection, schedule: Q04DX002 (ip), vehicle: saline with Tween-80) and 98 % of control (endpoint: mean survival time, dose: 50.0 mg/kg/injection, schedule: Q04DX002 (ip), vehicle: saline with Tween-80).
Turning to `Cc1cc(=O)c(C(=O)NC/C(C#N)=C\c2ccccc2)c(C)[nH]1`, the T/C is, setting by setting: under setting [8], 93 % of control; under setting [11], 100 % of control.
Regarding `C#CCOc1c(C(=O)OCC)cnc2c1c(C)nn2CC`, the T/C (endpoint: mean survival time, dose: 100.0 mg/kg/injection, schedule: Q04DX003 (ip), vehicle: Klucel (hydroxypropylcellulose) (HPC)) was 101 % of control; the T/C (endpoint: mean survival time, dose: 200.0 mg/kg/injection, schedule: Q04DX003 (ip), vehicle: Klucel (hydroxypropylcellulose) (HPC)) was 97 % of control; the T/C (endpoint: mean survival time, dose: 400.0 mg/kg/injection, schedule: Q04DX003 (ip), vehicle: Klucel (hydroxypropylcellulose) (HPC)) is 101 % of control.
Regarding `O=S(=O)(C1CCCCC1)N1N=NC2CCCCC21` (configuration not stated), the T/C under setting [12] is 100 % of control and the T/C under setting [13] was 102 % of control.
As to `Nc1ncnc2c1ccn2C1OC(CO)C2[O][Sn]([c]3ccccc3)([c]3ccccc3)[O]C21` (configuration not stated), the T/C is, setting by setting: (endpoint: mean survival time, dose: 0.78 mg/kg/injection, schedule: Q01DX005 (ip), vehicle: other) 110 % of control; (endpoint: mean survival time, dose: 1.56 mg/kg/injection, schedule: Q01DX005 (ip), vehicle: other) 113 % of control; (endpoint: mean survival time, dose: 3.13 mg/kg/injection, schedule: Q01DX005 (ip), vehicle: other) 111 % of control; (endpoint: mean survival time, dose: 6.25 mg/kg/injection, schedule: Q01DX005 (ip), vehicle: other) 90 % of control.
Turning to `CCCCCCC(Sc1nn(C2OC(COC(=O)c3ccccc3)C(OC(=O)c3ccccc3)C2OC(=O)c2ccccc2)c(=O)[nH]c1=O)C(=O)OCC` (configuration not stated), the T/C reads like this: (endpoint: mean survival time, dose: 12.5 mg/kg/injection, schedule: Q01DX005 (ip), vehicle: distilled water + Tween-80) 100 % of control; (endpoint: mean survival time, dose: 25.0 mg/kg/injection, schedule: Q01DX005 (ip), vehicle: distilled water + Tween-80) 100 % of control; (endpoint: mean survival time, dose: 50.0 mg/kg/injection, schedule: Q01DX005 (ip), vehicle: distilled water + Tween-80) 94 % of control; (endpoint: mean survival time, dose: 100.0 mg/kg/injection, schedule: Q01DX005 (ip), vehicle: distilled water + Tween-80) 95 % of control; (endpoint: mean survival time, dose: 200.0 mg/kg/injection, schedule: Q01DX005 (ip), vehicle: distilled water + Tween-80) 94 % of control.
As to `O=C1c2ccccc2S(=O)(=O)N1CCBr`, the T/C reads like this: under setting [4], 97 % of control; under setting [12], 106 % of control; under setting [5], 100 % of control; under setting [13], 106 % of control; under setting [10], 102 % of control; (endpoint: mean survival time, dose: 400.0 mg/kg/injection, schedule: Q04DX003 (ip), vehicle: saline with Tween-80) 110 % of control.
Consider `COc1cccc(C(=O)C=C(C(F)(F)F)C(F)(F)F)c1`, for which the T/C was 104 % of control (endpoint: mean survival time, dose: 12.5 mg/kg/injection, schedule: Q01DX009 (ip), vehicle: saline with Tween-80) and 109 % of control (endpoint: mean survival time, dose: 25.0 mg/kg/injection, schedule: Q01DX009 (ip), vehicle: saline with Tween-80).
`O=C(/C=C/c1ccccc1Cl)c1ccccc1[N+](=O)[O-]`: the T/C was 89 % of control under setting [4], 94 % of control under setting [5] and 95 % of control under setting [10].
